According to US20250230193A1, “CYCLIC COMPOUND HAVING SELECTIVE KRAS INHIBITORY EFFECT ON HRAS AND NRAS” (CHUGAI SEIYAKU KABUSHIKI KAISHA, priority 2022, published 2025):

How the values were obtained:
[1] = target: GDP-bound HRAS wild-type protein (Homo sapiens, UniProt P01112); experiment: Binding to HRAS by surface plasmon resonance (SPR), Single Cycle Kinetics; settings: KD ratio, GDP-bound HRAS wild-type vs GDP-bound KRAS wild-type, SPR
[2] = target: GDP-bound NRAS wild-type protein (Homo sapiens, UniProt P01111); experiment: Binding to NRAS by surface plasmon resonance (SPR), Single Cycle Kinetics; settings: KD ratio, GDP-bound NRAS wild-type vs GDP-bound KRAS wild-type, SPR
Sequence of GDP-bound NRAS wild-type protein (P01111 whole entry): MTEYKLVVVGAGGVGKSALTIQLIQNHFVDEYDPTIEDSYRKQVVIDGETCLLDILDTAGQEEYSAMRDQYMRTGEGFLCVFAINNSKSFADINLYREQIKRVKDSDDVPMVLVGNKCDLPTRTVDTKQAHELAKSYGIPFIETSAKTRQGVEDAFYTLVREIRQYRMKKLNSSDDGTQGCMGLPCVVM

Sequence of GDP-bound HRAS wild-type protein (P01112 whole entry): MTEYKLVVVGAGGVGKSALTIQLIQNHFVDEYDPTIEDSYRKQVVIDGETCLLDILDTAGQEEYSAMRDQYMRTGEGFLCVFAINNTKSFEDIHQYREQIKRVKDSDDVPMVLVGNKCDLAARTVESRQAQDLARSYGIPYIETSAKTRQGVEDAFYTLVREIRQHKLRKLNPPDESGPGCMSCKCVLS

SMILES | HRAS/KRAS (ratio of KD value with respect to HRAS to KD value with respect to KRAS) [1] | NRAS/KRAS (ratio of KD value with respect to NRAS to KD value with respect to KRAS) [2]
CCO[C@@H]1C[C@H]2C(=O)NC3(CCC3)C(=O)N(C)[C@@H](C3CCCC3)C(=O)N(C)[C@H](C(=O)N(C)C)CC(=O)N(C)[C@@H](CC(C)C)C(=O)N[C@@H]([C@@H](C)CC)C(=O)N(C)CC(=O)N(C)[C@H]3C[C@@H](C)CCN(C3=O)[C@@H](Cc3ccc(C(F)(F)F)cc3)C(=O)N(C)CC(=O)N[C@@H](CCc3cc(F)c(C(F)(F)F)c(F)c3)C(=O)N2C1 [PP1018] | B (a compound having 3 or more and less than 10 is denoted as B) | C (A compound having a KD ratio of 0.1 or more and less than 3 is denoted as C)
CCO[C@@H]1C[C@H]2C(=O)NC3(CCC3)C(=O)N(C)[C@@H](C3CCCC3)C(=O)N(C)[C@H](C(=O)N(C)C)CC(=O)N(C)[C@@H](CC(C)C)C(=O)N[C@@H]([C@@H](C)CC)C(=O)N3CC[C@H]3C(=O)N(C)[C@H]3C[C@@H](C)CCN(C3=O)[C@@H](Cc3ccc(C(F)(F)F)cc3)C(=O)N(C)CC(=O)N[C@@H](CCc3cc(F)c(C(F)(F)F)c(F)c3)C(=O)N2C1 [PP1019] | B (a compound having 3 or more and less than 10 is denoted as B) | C (A compound having a KD ratio of 0.1 or more and less than 3 is denoted as C)
CCO[C@@H]1C[C@H]2C(=O)NC3(CCC3)C(=O)N(C)[C@@H](C3CCCC3)C(=O)N(C)[C@H](C(=O)N(C)C)CC(=O)N(C)[C@@H](CC)C(=O)N[C@@H]([C@@H](C)CC)C(=O)N(C)CC(=O)N(C)[C@H]3C[C@@H](C)CCN(C3=O)[C@@H](Cc3ccc(C(F)(F)F)cc3)C(=O)N(C)CC(=O)N[C@@H](CCc3cc(F)c(C(F)(F)F)c(F)c3)C(=O)N2C1 [PP1020] | B (a compound having 3 or more and less than 10 is denoted as B) | C (A compound having a KD ratio of 0.1 or more and less than 3 is denoted as C)
CCO[C@@H]1C[C@H]2C(=O)NC3(CCC3)C(=O)N(C)[C@@H](C3CCCC3)C(=O)N(C)[C@H](C(=O)N(C)C)CC(=O)N(C)[C@@H](CC)C(=O)N[C@@H]([C@@H](C)CC)C(=O)N3CC[C@H]3C(=O)N(C)[C@H]3C[C@@H](C)CCN(C3=O)[C@@H](Cc3ccc(C(F)(F)F)cc3)C(=O)N(C)CC(=O)N[C@@H](CCc3cc(F)c(C(F)(F)F)c(F)c3)C(=O)N2C1 [PP1021] | B (a compound having 3 or more and less than 10 is denoted as B) | C (A compound having a KD ratio of 0.1 or more and less than 3 is denoted as C)
CCO[C@@H]1C[C@H]2C(=O)NC3(CCCC3)C(=O)N(C)[C@@H](C3CCCC3)C(=O)N(C)[C@H](C(=O)N(C)C)CC(=O)N(C)[C@@H](CC)C(=O)N[C@@H]([C@@H](C)CC)C(=O)N(C)CC(=O)N(C)[C@H]3C[C@@H](C)CCN(C3=O)[C@@H](Cc3ccc(C(F)(F)F)cc3)C(=O)N(C)CC(=O)N[C@@H](CCc3cc(F)c(C(F)(F)F)c(F)c3)C(=O)N2C1 [PP1022] | B (a compound having 3 or more and less than 10 is denoted as B) | C (A compound having a KD ratio of 0.1 or more and less than 3 is denoted as C)
CCO[C@@H]1C[C@H]2C(=O)NC3(CCCC3)C(=O)N(C)[C@@H](C3CCCC3)C(=O)N(C)[C@H](C(=O)N3CCOCC3)CC(=O)N(C)[C@@H](CC(C)C)C(=O)N[C@@H]([C@@H](C)CC)C(=O)N(C)CC(=O)N(C)[C@H]3C[C@@H](C)CCN(C3=O)[C@@H](Cc3ccc(C(F)(F)F)cc3)C(=O)N(C)CC(=O)N[C@@H](CCc3cc(F)c(C(F)(F)F)c(F)c3)C(=O)N2C1 [PP1024] | B (a compound having 3 or more and less than 10 is denoted as B) | B (a compound having 3 or more and less than 10 is denoted as B)
CCO[C@@H]1C[C@H]2C(=O)NC3(CCC3)C(=O)N(C)[C@@H](C3CCCC3)C(=O)N(C)[C@H](C(=O)N3CCOCC3)CC(=O)N(C)[C@@H](CC(C)C)C(=O)N[C@@H]([C@@H](C)CC)C(=O)N(C)CC(=O)N(C)[C@H]3C[C@@H](C)CCN(C3=O)[C@@H](Cc3ccc(C(F)(F)F)cc3)C(=O)N(C)CC(=O)N[C@@H](CCc3cc(F)c(C(F)(F)F)c(F)c3)C(=O)N2C1 [PP1025] | B (a compound having 3 or more and less than 10 is denoted as B) | C (A compound having a KD ratio of 0.1 or more and less than 3 is denoted as C)
CCO[C@@H]1C[C@H]2C(=O)NC3(CCC3)C(=O)N(C)[C@@H](C3CCCC3)C(=O)N(C)[C@H](C(=O)N3CCOCC3)CC(=O)N(C)[C@@H](CC(C)C)C(=O)N[C@@H]([C@@H](C)CC)C(=O)N3CC[C@H]3C(=O)N(C)[C@H]3C[C@@H](C)CCN(C3=O)[C@@H](Cc3ccc(C(F)(F)F)cc3)C(=O)N(C)CC(=O)N[C@@H](CCc3cc(F)c(C(F)(F)F)c(F)c3)C(=O)N2C1 [PP1026] | B (a compound having 3 or more and less than 10 is denoted as B) | B (a compound having 3 or more and less than 10 is denoted as B)
CCO[C@@H]1C[C@H]2C(=O)NC3(CCC3)C(=O)N(C)[C@@H](C3CCCC3)C(=O)N(C)[C@H](C(=O)N3CCOCC3)CC(=O)N(C)[C@@H](CC)C(=O)N[C@@H]([C@@H](C)CC)C(=O)N(C)CC(=O)N(C)[C@H]3C[C@@H](C)CCN(C3=O)[C@@H](Cc3ccc(C(F)(F)F)cc3)C(=O)N(C)CC(=O)N[C@@H](CCc3cc(F)c(C(F)(F)F)c(F)c3)C(=O)N2C1 [PP1027] | B (a compound having 3 or more and less than 10 is denoted as B) | C (A compound having a KD ratio of 0.1 or more and less than 3 is denoted as C)
CCO[C@@H]1C[C@H]2C(=O)NC3(CCC3)C(=O)N(C)[C@@H](C3CCCC3)C(=O)N(C)[C@H](C(=O)N3CCOCC3)CC(=O)N(C)[C@@H](CC)C(=O)N[C@@H]([C@@H](C)CC)C(=O)N3CC[C@H]3C(=O)N(C)[C@H]3C[C@@H](C)CCN(C3=O)[C@@H](Cc3ccc(C(F)(F)F)cc3)C(=O)N(C)CC(=O)N[C@@H](CCc3cc(F)c(C(F)(F)F)c(F)c3)C(=O)N2C1 [PP1028] | B (a compound having 3 or more and less than 10 is denoted as B) | B (a compound having 3 or more and less than 10 is denoted as B)
CCO[C@@H]1C[C@H]2C(=O)NC3(CCCC3)C(=O)N(C)[C@@H](C3CCCC3)C(=O)N(C)[C@H](C(=O)N3CCOCC3)CC(=O)N(C)[C@@H](CC)C(=O)N[C@@H]([C@@H](C)CC)C(=O)N(C)CC(=O)N(C)[C@H]3C[C@@H](C)CCN(C3=O)[C@@H](Cc3ccc(C(F)(F)F)cc3)C(=O)N(C)CC(=O)N[C@@H](CCc3cc(F)c(C(F)(F)F)c(F)c3)C(=O)N2C1 [PP1029] | B (a compound having 3 or more and less than 10 is denoted as B) | C (A compound having a KD ratio of 0.1 or more and less than 3 is denoted as C)
CCO[C@@H]1C[C@H]2C(=O)NC3(CCC3)C(=O)N(C)[C@@H](C3CCCC3)C(=O)N(C)[C@H](C(=O)N3CCOCC3)CC(=O)N(CC)[C@@H](CC(C)C)C(=O)N[C@@H]([C@@H](C)CC)C(=O)N(C)CC(=O)N(C)[C@H]3C[C@@H](C)CCN(C3=O)[C@@H](Cc3ccc(C(F)(F)F)cc3)C(=O)N(C)CC(=O)N[C@@H](CCc3cc(F)c(C(F)(F)F)c(F)c3)C(=O)N2C1 [PP1030] | B (a compound having 3 or more and less than 10 is denoted as B) | B (a compound having 3 or more and less than 10 is denoted as B)
CCO[C@@H]1C[C@H]2C(=O)NC3(CCCC3)C(=O)N(C)[C@@H](C3CCCC3)C(=O)N(C)[C@H](C(=O)N(C)C)CC(=O)N(C)[C@@H](CC(C)C)C(=O)N[C@@H]([C@@H](C)CC)C(=O)N(C)CC(=O)N(C)[C@H]3CC(C)=CCN(C3=O)[C@@H](Cc3ccc(C(F)(F)F)cc3)C(=O)N(C)CC(=O)N[C@@H](CCc3cc(F)c(C(F)(F)F)c(F)c3)C(=O)N2C1 [PP1031] | C (A compound having a KD ratio of 0.1 or more and less than 3 is denoted as C) | C (A compound having a KD ratio of 0.1 or more and less than 3 is denoted as C)
CCO[C@@H]1C[C@H]2C(=O)NC3(CCC3)C(=O)N(C)[C@@H](C3CCCC3)C(=O)N(C)[C@H](C(=O)N(C)C)CC(=O)N(C)[C@@H](CC(C)C)C(=O)N[C@@H]([C@@H](C)CC)C(=O)N(C)CC(=O)N(C)[C@H]3CC(C)=CCN(C3=O)[C@@H](Cc3ccc(C(F)(F)F)cc3)C(=O)N(C)CC(=O)N[C@@H](CCc3cc(F)c(C(F)(F)F)c(F)c3)C(=O)N2C1 [PP1032] | C (A compound having a KD ratio of 0.1 or more and less than 3 is denoted as C) | C (A compound having a KD ratio of 0.1 or more and less than 3 is denoted as C)
CCO[C@@H]1C[C@H]2C(=O)NC3(CCC3)C(=O)N(C)[C@@H](C3CCCC3)C(=O)N(C)[C@H](C(=O)N(C)C)CC(=O)N(C)[C@@H](CC(C)C)C(=O)N[C@@H]([C@@H](C)CC)C(=O)N3CC[C@H]3C(=O)N(C)[C@H]3CC(C)=CCN(C3=O)[C@@H](Cc3ccc(C(F)(F)F)cc3)C(=O)N(C)CC(=O)N[C@@H](CCc3cc(F)c(C(F)(F)F)c(F)c3)C(=O)N2C1 [PP1033] | C (A compound having a KD ratio of 0.1 or more and less than 3 is denoted as C) | C (A compound having a KD ratio of 0.1 or more and less than 3 is denoted as C)
